Results reported in ChEMBL document CHEMBL1201862, “PubChem BioAssay data set” (2004).
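Five compound concentrations were applied to cells in 96-well plates for 48 hours; endpoints were derived by simple linear interpolation of the resulting dose-response curve. GI50 marks 50% less growth.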 The source made the active and inactive calls. No stated cut-off is given here; in the data, active = GI50 up to about 1.1 µM and inactive = higher.

Assays:
Experiment in all cases: growth of human tumour cells (NCI), 48 h
EKVX = system: EKVX
DU-145 = system: DU-145
CAKI-1 = system: CAKI-1
HCT-116 = system: HCT-116
Hs-578T = system: Hs-578T
OVCAR-8 = system: OVCAR-8
UACC-62 = system: UACC-62
SK-MEL-5 = system: SK-MEL-5
A549 = system: A549
A498 = system: A498
K562 = system: K562
SK-MEL-28 = system: SK-MEL-28
786-0 = system: 786-0
PC-3 = system: PC-3
KM12 = system: KM12
SW-620 = system: SW-620
MOLT-4 = system: MOLT-4
HOP-62 = system: HOP-62
OVCAR-3 = system: OVCAR-3
NCI-H522 = system: NCI-H522
ACHN = system: ACHN
MDA-MB-435 = system: MDA-MB-435
IGROV-1 = system: IGROV-1
LOX IMVI = system: LOX IMVI
OVCAR-4 = system: OVCAR-4
SNB-19 = system: SNB-19
SN12C = system: SN12C
MDA-MB-231 = system: MDA-MB-231
UO-31 = system: UO-31
HT-29 = system: HT-29
Malme-3M = system: Malme-3M
NCI-H460 = system: NCI-H460
OVCAR-5 = system: OVCAR-5
HOP-92 = system: HOP-92
UACC-257 = system: UACC-257
MDA-N = system: MDA-N
SF-539 = system: SF-539
BT-549 = system: BT-549
COLO 205 = system: COLO 205
SF-268 = system: SF-268
HL-60 = system: HL-60
M14 = system: M14
HCC 2998 = system: HCC 2998
MCF7 = system: MCF7
SK-MEL-2 = system: SK-MEL-2
NCI/ADR-RES = system: NCI/ADR-RES
SF-295 = system: SF-295
SK-OV-3 = system: SK-OV-3
U-251 = system: U-251
NCI-H23 = system: NCI-H23
CCRF-CEM = system: CCRF-CEM
T47D = system: T47D
HCT-15 = system: HCT-15
TK-10 = system: TK-10
RXF 393 = system: RXF 393
SNB-75 = system: SNB-75
SR = system: SR
NCI-H226 = system: NCI-H226
RPMI-8226 = system: RPMI-8226
KM-20L2 = system: KM-20L2

C[C@]12CC[C@@H]3c4cc(OCC(F)(F)F)c(O)cc4C(=O)C[C@H]3[C@@H]1CC[C@@H]2O
GI50 (EKVX): 14.7 µM (inactive)
GI50 (DU-145): 17.3 µM (inactive)
GI50 (CAKI-1): 6.93 µM (inactive)
GI50 (HCT-116): 3.72 µM (inactive)
GI50 (Hs-578T): 4.92 µM (inactive)
GI50 (OVCAR-8): 23.1 µM (inactive)
GI50 (UACC-62): 3.26 µM (inactive)
GI50 (SK-MEL-5): 5.87 µM (inactive)
GI50 (A549): 6.98 µM (inactive)
GI50 (A498): 7.93 µM (inactive)
GI50 (K562): 2.26 µM (inactive)
GI50 (SK-MEL-28): 7.64 µM (inactive)
GI50 (786-0): 10.8 µM (inactive)
GI50 (PC-3): 18.5 µM (inactive)
GI50 (KM12): 10.6 µM (inactive)
GI50 (SW-620): 4.02 µM (inactive)
GI50 (MOLT-4): 3.5 µM (inactive)
GI50 (HOP-62): 12.6 µM (inactive)
GI50 (OVCAR-3): 2.88 µM (inactive)
GI50 (NCI-H522): 3.3 µM (inactive)
GI50 (ACHN): 20.7 µM (inactive)
GI50 (MDA-MB-435): 1.78 µM (inactive)
GI50 (IGROV-1): 13.6 µM (inactive)
GI50 (LOX IMVI): 5.79 µM (inactive)
GI50 (OVCAR-4): 27.2 µM (inactive)
GI50 (SNB-19): 13.5 µM (inactive)
GI50 (SN12C): 13.1 µM (inactive)
GI50 (MDA-MB-231): 12.9 µM (inactive)
GI50 (UO-31): 13.6 µM (inactive)
GI50 (HT-29): 12.9 µM (inactive)
GI50 (Malme-3M): 3.63 µM (inactive)
GI50 (NCI-H460): 4.71 µM (inactive)
GI50 (OVCAR-5): 29.9 µM (inactive)
GI50 (HOP-92): 20.7 µM (inactive)
GI50 (UACC-257): 12.2 µM (inactive)
GI50 (MDA-N): 1.6 µM (inactive)
GI50 (SF-539): 5.09 µM (inactive)
GI50 (BT-549): 6.34 µM (inactive)
GI50 (COLO 205): 26.6 µM (inactive)
GI50 (SF-268): 13.7 µM (inactive)
GI50 (HL-60): 1.84 µM (inactive)
GI50 (M14): 5.77 µM (inactive)
GI50 (HCC 2998): 6.11 µM (inactive)
GI50 (MCF7): 5.07 µM (inactive)
GI50 (SK-MEL-2): 11.4 µM (inactive)
GI50 (NCI/ADR-RES): 6.35 µM (inactive)
GI50 (SF-295): 3.6 µM (inactive)
GI50 (SK-OV-3): 10.6 µM (inactive)
GI50 (U-251): 4.67 µM (inactive)
GI50 (NCI-H23): 12 µM (inactive)
GI50 (CCRF-CEM): 3.39 µM (inactive)
GI50 (T47D): 29.1 µM (inactive)
GI50 (HCT-15): 4.18 µM
GI50 (TK-10): 18.7 µM (inactive)
GI50 (RXF 393): 13 µM (inactive)
GI50 (SNB-75): 5.36 µM (inactive)
GI50 (SR): 1.51 µM (inactive)
GI50 (NCI-H226): 22.5 µM (inactive)
GI50 (RPMI-8226): 3.2 µM (inactive)

COc1ccc(/C=C/c2cc(OC)c(OC)c(OC)c2)cc1O [E-COMBRETASTATIN A-4]
GI50 (KM-20L2): 8.71 µM (inactive)
GI50 (EKVX): 8.73 µM (inactive)
GI50 (CAKI-1): 6.71 µM (inactive)
GI50 (IGROV-1): 3.17 µM (inactive)
GI50 (UO-31): 1.13 µM (inactive)
GI50 (HT-29): 7.89 µM (inactive)
GI50 (OVCAR-5): 22.2 µM (inactive)
GI50 (BT-549): 8.95 µM (inactive)
GI50 (TK-10): 13.3 µM (inactive)

CSc1ccc(NC(=O)Nc2cc(C)ccn2)cc1
GI50 (EKVX): > 100 µM (inactive)
GI50 (DU-145): > 100 µM (inactive)
GI50 (CAKI-1): > 100 µM (inactive)
GI50 (HCT-116): > 100 µM (inactive)
GI50 (Hs-578T): > 100 µM (inactive)
GI50 (OVCAR-8): > 100 µM (inactive)
GI50 (UACC-62): > 100 µM (inactive)
GI50 (SK-MEL-5): > 100 µM (inactive)
GI50 (A549): > 100 µM (inactive)
GI50 (A498): > 100 µM (inactive)
GI50 (K562): > 100 µM (inactive)
GI50 (SK-MEL-28): > 100 µM (inactive)
GI50 (786-0): > 100 µM (inactive)
GI50 (PC-3): > 100 µM (inactive)
GI50 (KM12): > 100 µM (inactive)
GI50 (SW-620): > 100 µM (inactive)
GI50 (MOLT-4): > 100 µM (inactive)
GI50 (HOP-62): > 100 µM (inactive)
GI50 (OVCAR-3): > 100 µM (inactive)
GI50 (NCI-H522): > 100 µM (inactive)
GI50 (ACHN): > 100 µM (inactive)
GI50 (MDA-MB-435): > 100 µM (inactive)
GI50 (IGROV-1): > 100 µM (inactive)
GI50 (LOX IMVI): > 100 µM (inactive)
GI50 (OVCAR-4): > 100 µM (inactive)
GI50 (SNB-19): > 100 µM (inactive)
GI50 (SN12C): > 100 µM (inactive)
GI50 (MDA-MB-231): > 100 µM (inactive)
GI50 (UO-31): > 100 µM (inactive)
GI50 (HT-29): > 100 µM (inactive)
GI50 (Malme-3M): > 100 µM (inactive)
GI50 (NCI-H460): > 100 µM (inactive)
GI50 (OVCAR-5): > 100 µM (inactive)
GI50 (HOP-92): > 100 µM (inactive)
GI50 (UACC-257): > 100 µM (inactive)
GI50 (MDA-N): > 100 µM (inactive)
GI50 (SF-539): 2.36 µM (inactive)
GI50 (BT-549): > 100 µM (inactive)
GI50 (COLO 205): > 100 µM (inactive)
GI50 (SF-268): > 100 µM (inactive)
GI50 (HL-60): > 100 µM (inactive)
GI50 (M14): > 100 µM (inactive)
GI50 (HCC 2998): 91.4 µM (inactive)
GI50 (MCF7): > 100 µM (inactive)
GI50 (SK-MEL-2): > 100 µM (inactive)
GI50 (NCI/ADR-RES): > 100 µM (inactive)
GI50 (SF-295): > 100 µM (inactive)
GI50 (SK-OV-3): > 100 µM (inactive)
GI50 (U-251): > 100 µM (inactive)
GI50 (NCI-H23): > 100 µM (inactive)
GI50 (CCRF-CEM): > 100 µM (inactive)
GI50 (T47D): > 100 µM (inactive)
GI50 (HCT-15): > 100 µM
GI50 (TK-10): > 100 µM (inactive)
GI50 (RXF 393): > 100 µM (inactive)
GI50 (SNB-75): > 100 µM (inactive)
GI50 (SR): > 100 µM (inactive)
GI50 (NCI-H226): > 100 µM (inactive)
GI50 (RPMI-8226): > 100 µM (inactive)
